Measured values reported in US20050048011A1, “Skin preparation comprising a tocopherol derivative for external application” (priority 2001, published 2005).

Tests used:
[1] = system: three dimensional model of human skin tissue (TESTSKIN LSD-d, Toyobo K. K.); experiment: Permeability of three dimensional model of human skin tissue and tocopherol conversion; details: for level of tocopherol in model skin: 1% solution, 6 hours
Procedure: 40 μL of a 1% solution of the below test substances 1) to 7) dissolved or dispersed in Dulbecco's PBS (−) were applied onto the tissue surface of a three dimensional model of human skin tissue (TESTSKIN™ LSD-d, Toyobo K. K.) and were cultured at 37° C. under 5% CO2 for 6 hours. After this, the solutions of the test substances were removed by aspiration and sampling was carried out.
The sample model skin was washed with Dulbecco's PBS (−) and the tissue surfaces onto which the test substances were applied were punched out with a φ 6 mm punch, and were homogenated in a HEPES buffer solution (pH 7.2), and quantitative analysis of the α-tocopherol and γ-tocopherol were carried out by high speed liquid chromatography. Quantitative analysis of the amount of protein in the model skin was carried out according to the Lowry method. • 1) α-tocopherol dimethylglycine ester hydrochloride • 2) α-tocopherol sarcosine ester hydrochloride • 3) αa-tocopherol glycine ester • 4) γ-tocopherol dimethylglycine ester hydrochloride • 5) γ-tocopherol sarcosine ester hydrochloride • 6) γ-tocopherol glycine ester • 7) tocopherol acetate

[2] = system: keratinocytes of normal human epidermis; experiment: Conversion to α-tocopherol in keratinocyte of human epidermis (cell spall solution); details: 37° C. for 2 hours; for increase of the α-tocopherol amount in cell spall solution: 1 mM; for amount of α-tocopherol liberated in the reaction solution: final concentration 1 mM, not added: lower than detection limit
Procedure: The cells were harvested and spalled by freeze-thawing method. To this cell spall solution, 1), 2), 3) or 4) was added to have a final concentration of 1 mM. The resulting solution was kept at 37° C. for 2 hours and then the amount of α-tocopherol liberated in the reaction solution was measured.

[3] = system: skin removed from the back of a hairless mouse; experiment: Evaluation of skin penetrability (α-tocopherol amount in skin); details: 4 hours at 37° C.; for amount of α-tocopherol in the skin: Dulbecco's MEM containing 0.50 of test substance on epidermis side, not added: 10 nmol/g of skin; for increase of the α-tocopherol amount in treated skin: hairless mouse skin
[4] = system: skin removed from the back of a hairless mouse; details: 4 hours at 37° C.; for amount of γ-tocopherol in the skin: Dulbecco's MEM containing 0.50 of test substance on epidermis side, not added: lower than detection limit; for increase of the γ-tocopherol amount in treated skin: hairless mouse skin
Procedure: Then, the amount of γ-tocopherol in the skin was measured.

[5] = system: keratinocytes of normal human epidermis; experiment: Conversion to γ-tocopherol in keratinocyte of human epidermis (cell spall solution); details: 37° C. for 2 hours; for increase of the γ-tocopherol amount in cell spall solution: 1 mM; for amount of γ-tocopherol liberated in the reaction solution: final concentration 1 mM, not added: lower than detection limit
Procedure: The cells were harvested and spalled by freeze-thawing method. To this cell spall solution, 1), 2) or 3) was added to have a final concentration of 1 mM. The resulting solution was kept at 37° C. for 2 hours and then the amount of γ-tocopherol liberated in the reaction solution was measured.

[6] = 40 μL of 1% solution in Dulbecco's PBS (−) on tissue surface, 37° C., 5% CO2, 6 hours

CC(=O)Oc1c(C)c(C)c2c(c1C)CCC(C)(CCC[C@H](C)CCC[C@H](C)CCCC(C)C)O2 (stereo partly drawn) [Tocopherol acetate, reference compound]
the amount of α-tocopherol in model skin ([1]; human, 6 h, 1 %): 1.0 nmol/mg protein

Cc1c(C)c2c(c(C)c1OC(=O)CN(C)C)CCC(C)(CCCC(C)CCCC(C)CCCC(C)C)O2.Cl (stereo not drawn) [α-Tocopherol dimethylglycine ester hydrochloride]
increase of the α-tocopherol amount in cell spall solution [2]: significant increase
amount of α-tocopherol liberated in the reaction solution [2]: 6.9 nmol/ml of cell suspension
level of tocopherol in model skin [1]: significantly increased
the amount of α-tocopherol in model skin [1, 6]: 2.8 nmol/mg protein
amount of α-tocopherol in the skin [3]: 17 nmol/g of skin
increase of the α-tocopherol amount in treated skin [3]: significant increase

CNCC(=O)Oc1c(C)c(C)c2c(c1C)CCC(C)(CCCC(C)CCCC(C)CCCC(C)C)O2.Cl (stereo not drawn) [α-Tocopherol sarcosine ester hydrochloride]
increase of the α-tocopherol amount in cell spall solution [2]: significant increase
amount of α-tocopherol liberated in the reaction solution [2]: 26.9 nmol/ml of cell suspension
level of tocopherol in model skin [1]: significantly increased
the amount of α-tocopherol in model skin [1, 6]: 3.9 nmol/mg protein
amount of α-tocopherol in the skin [3]: 20 nmol/g of skin
increase of the α-tocopherol amount in treated skin [3]: significant increase

Cc1c(C)c2c(c(C)c1OC(=O)CN)CCC(C)(CCCC(C)CCCC(C)CCCC(C)C)O2 (stereo not drawn) [αa-tocopherol glycine ester, reference compound]
the amount of α-tocopherol in model skin [1, 6]: 1.2 nmol/mg protein

Cc1c(OC(=O)CN(C)C)cc2c(c1C)OC(C)(CCCC(C)CCCC(C)CCCC(C)C)CC2.Cl (stereo not drawn) [γ-Tocopherol dimethylglycine ester hydrochloride]
amount of γ-tocopherol in the skin [4]: 20 nmol/g of skin
increase of the γ-tocopherol amount in treated skin [4]: significant increase
increase of the γ-tocopherol amount in cell spall solution [5]: significant increase
amount of γ-tocopherol liberated in the reaction solution [5]: 28.1 nmol/ml of cell suspension
level of tocopherol in model skin [1]: significantly increased
the amount of γ-tocopherol in model skin [1, 6]: 4.7 nmol/mg protein

CNCC(=O)Oc1cc2c(c(C)c1C)OC(C)(CCCC(C)CCCC(C)CCCC(C)C)CC2.Cl (stereo not drawn) [γ-Tocopherol sarcosine ester hydrochloride]
amount of γ-tocopherol in the skin [4]: 2.1 nmol/g of skin
increase of the γ-tocopherol amount in treated skin [4]: significant increase
increase of the γ-tocopherol amount in cell spall solution [5]: significant increase
amount of γ-tocopherol liberated in the reaction solution [5]: 30.3 nmol/ml of cell suspension
level of tocopherol in model skin [1]: significantly increased
the amount of γ-tocopherol in model skin [1, 6]: 5.5 nmol/mg protein

Cc1c(OC(=O)CN)cc2c(c1C)OC(C)(CCCC(C)CCCC(C)CCCC(C)C)CC2 (stereo not drawn) [γ-tocopherol glycine ester, reference compound]
the amount of γ-tocopherol in model skin [1, 6]: 1.5 nmol/mg protein
